Test results as given in US4535081A, “Antiallergic and antiulcer 1-oxo-1H-thiazolo[3,2-a]pyrimidine-2-carboxamides and intermediates therefor” (Pfizer Inc., priority 1983, dated 1985).

Assays:
[1] = test system: ulcerogenic effects of aspirin; test: Protection against ulcerogenic effects of aspirin; type: in vivo; details: p.o.; aspirin 100 mg/kg p.o.
Experimental: Compound III also protects against the ulcerogenic effects of aspirin, 100 mg/kg p.o. where dose-related effects are seen over the dose range of 10 to 1000 μg/kg, p.o. with an ED50 of 100 μg/kg. Compound III is also active in a phenylbutazone gastric ulcer model where an oral ED50 of 200 μg/kg is observed. […] "Cytoprotective," a term coined recently to describe the antiulcer effects of prostaglandins that are independent of antisecretory activity, [Robert, Advances in Prostaglandin and Thromboxane Research 2, 507 (1976); Miller et al., Gut 20, 75 (1979); Robert et al., Gastroenterology 72, 1121 (1977).] aptly characterizes the effects of compound III.

[2] = test system: blood glucose levels; test: Blood glucose in fasted rats; type: in vivo, rat; details: fasted 24 hours; oral 10, 30 or 100 mg/kg
[3] = test system: glucose tolerance; test: Glucose tolerance in rats; type: in vivo, rat; details: 10, 30, or 100 mg/kg p.o. with glucose 1 g/kg p.o.
Excerpt: This effect may be due to a delayed absorption of glucose related to a possible effect on gastric emptying.

[4] = test system: point mutations; test: Ames test in vitro; type: cell-based
[5] = Oral absorption and plasma concentrations, rats; type: in vivo, rat
Experimental: (§1) This is supported by the observations of plasma concentrations of 3 to 7 μg/ml one hour after oral administration of III, 50 to 300 mg/kg.

[6] = Oral absorption and plasma concentrations, dogs; type: in vivo, dog
Experimental: as §1

[7] = Plasma levels after repeated daily dosing; type: in vivo; details: after the eighth daily dose of III
Experimental: as §1

[8] = one hour after oral 50 to 300 mg/kg, 60 min

With `O=C(Nc1nnn[nH]1)c1cnc2sc3c(n2c1=O)CCCC3` [Compound III, N-(5-Tetrazolyl)-1-oxo-1H-cyclohexenothiazolo[3,2-a]pyrimidine-2-carboxamide] the “dose range of dose-related effects, aspirin ulcer” value [1] was 0.01 to 1 mg/kg, the blood glucose levels [2] was “did not exhibit any changes in blood glucose levels” and the glucose tolerance [3] was “apparent dose-dependent improvement in glucose tolerance”. The “point mutations in Ames test” value [4] was “did not induce point mutations”, the plasma concentration [5, 8] was 3000 to 7000 ng/mL and the oral absorption ([5]; ratio of comparably effective oral and intravenous doses, PCA test) was “good oral absorption”. For the same compound, the plasma concentration [6, 8] was 9000 to 26000 ng/mL, the oral absorption ([6]; suspensions or capsules) was “absorbed readily after oral administration” and the “levels after the eighth daily dose relative to initial dose” value [7] was 2 to 4 times.
